According to PubChem BioAssay AID686955 (ICCB-Longwood Screening Facility, Harvard Medical School, 2013):
Activity calls are given as the source filed them.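 The calls were made as follows: active = compounds that shift the dex/IL-1 ratio, either lowering it activators or doubling it inhibitors, at 1 µM (some results past the limit were not filed as active); inactive = the rest.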

Tested on: NF-kB luciferase reporter cells, IL-1b + dexamethasone, 18 h
Test: GR-specific modulators of NF-kB trans-repression, confirmation, cell-based, luciferase, IL-1B plus dexamethasone (AID 686955)
Conditions: for assay II/I ratio: 4 uM; for normalized assay II/I ratio: at 1 µM

SMILES: COc1cccc(-n2ncc3c(N/N=C/c4ccc(S(C)(=O)=O)cc4)ncnc32)c1
- assay II/I ratio (dexamethasone conc 1): 0.326
- assay II/I ratio (dexamethasone conc 2): 0.242
- normalized assay II/I ratio: 1.18 (inactive)
- normalized assay II/I ratio (dexamethasone concentration 2): 1.17

SMILES: O=C(NC1NNC2NNC(c3cccnc3)CC21)C1CC1 (stereo unspecified)
- assay II/I ratio (dexamethasone conc 1): 0.597
- assay II/I ratio (dexamethasone conc 2): 0.43
- normalized assay II/I ratio: 1.91 (inactive)
- normalized assay II/I ratio (dexamethasone concentration 2): 1.94

SMILES: Cn1cc(C2=C(c3ccccc3[N+](=O)[O-])C(=O)NC2=O)c2ccccc21
- assay II/I ratio (dexamethasone conc 1): 0.733
- assay II/I ratio (dexamethasone conc 2): 0.646
- normalized assay II/I ratio: 2.39
- normalized assay II/I ratio (dexamethasone concentration 2): 2.62

SMILES: Cn1cc(C2=C(c3cccc(OCC(O)CO)c3)C(=O)NC2=O)c2ccccc21 (stereo unspecified)
- assay II/I ratio (dexamethasone conc 1): 0.553
- assay II/I ratio (dexamethasone conc 2): 0.398
- normalized assay II/I ratio: 1.68 (inactive)
- normalized assay II/I ratio (dexamethasone concentration 2): 1.68

SMILES: COc1ccc(O)c(C(=O)c2ccc(C(=O)O[C@H]3CCCNC[C@@H]3NC(=O)c3ccncc3)cc2)c1F
- assay II/I ratio (dexamethasone conc 1): 0.85
- assay II/I ratio (dexamethasone conc 2): 0.659
- normalized assay II/I ratio: 0.93 (inactive)
- normalized assay II/I ratio (dexamethasone concentration 2): 0.89

SMILES: Cc1[nH]nc2c1N=C(c1ccccc1F)c1cc(C#N)ccc1N2
- assay II/I ratio (dexamethasone conc 1): 0.66
- assay II/I ratio (dexamethasone conc 2): 0.386
- normalized assay II/I ratio: 1.87 (inactive)
- normalized assay II/I ratio (dexamethasone concentration 2): 2.07

SMILES: COc1cccc(-n2ncc3c(N/N=C/c4ccncc4)ncnc32)c1
- assay II/I ratio (dexamethasone conc 1): 0.504
- assay II/I ratio (dexamethasone conc 2): 0.362
- normalized assay II/I ratio: 1.47 (inactive)
- normalized assay II/I ratio (dexamethasone concentration 2): 1.44

SMILES: Cn1cc(C2=C(c3cccc(NCC(O)CO)c3)C(=O)NC2=O)c2cc(Cl)ccc21 (stereo unspecified)
- assay II/I ratio (dexamethasone conc 1): 0.664
- assay II/I ratio (dexamethasone conc 2): 0.47
- normalized assay II/I ratio: 1.93 (inactive)
- normalized assay II/I ratio (dexamethasone concentration 2): 1.97

SMILES: O=C(Nc1n[nH]c2nc(-c3ccc(O)cc3)c(Br)cc12)C1CC1
- assay II/I ratio (dexamethasone conc 1): 0.935
- assay II/I ratio (dexamethasone conc 2): 0.684
- normalized assay II/I ratio: 2.27
- normalized assay II/I ratio (dexamethasone concentration 2): 2.53
